Measurements as given in US4904672A, “Derivatives of 3-hydroxyazabenzo[b]thiophene useful as 5-lipoxygenase inhibitors” (Merck & Co., Inc., priority 1988, dated 1990).

Test system: Brewer's yeast-induced hyperalgesia (pain response)
Experiment: Brewer's Yeast Hyperalgesia Assay in the rat
Type: in vivo, rat (female Sprague-Dawley)
Details: 3 mg/kg p.o.
Experimental: In this assay, which is sensitive to inhibition by lipoxygenase and cyclooxygenase inhibitors, compounds of formula I reduced the pain response induced by Brewer's yeast (Table 1a).
Groups of 10 female Sprague-Dawley rats, weighing 35-50 grams (Charles River Breeding Laboratories), were fasted overnight prior to testing. For each animal, 0.1 ml of the edema-inducing Brewer's yeast suspension (5% homogenate in physiological saline) was injected into the right hindpaw. Pain threshold was measured by applying pressure to the plantar surface of the hindpaw by means of a compressed air driven piston with a 2 mm. tip. Testing was carried out 3, 4, and 5 hours after the yeast injection. Compounds, prepared as homogenates in either 1% methylcellulose or aqueous vehicle, were administered orally 60 minutes before testing. A group of vehicle treated control animals was included in each experiment. Squeak pressure thresholds were measured and recorded for the compound and vehicle-treated groups of rats 3, 4, and 5 hours after administration of the Brewer's yeast (60 minutes after compound treatment). The estimation of analgesia was as follows: 1. the mean response pressure for the daily vehicle control group in the normal and inflammed foot was calculated; 2. for each compound treatment group, the number of animals with response pressures equal to or greater than 25 mm Hg was noted. These animals were considered to be analgesic.

| SMILES | % Inhibition (yeast hyperalgesia) [%] |
| --- | --- |
| COc1ccc(-c2sc3ncccc3c2OC(C)=O)cc1 [R=(CO)CH3, X1=H, X2=p-OCH3] | 10 |
| COc1ccc2c(OC(C)=O)c(-c3ccccc3)sc2n1 [R=(CO)CH3, X1=6-OCH3, X2=H] | 60 |
